These results are taken from US5334716A, “Heterocyclic derivatives” (Fujisawa Pharmaceutical Co., Ltd., priority 1991, dated 1994).

SMILES strings stand for the structures.

The target of this assay is prostatic testosterone 5α-reductase. The assay is described as follows: Inhibitory activity on testosterone 5α-reductase in rats. In kind it is biochemical, rat (Spraque-Dawley). Conditions: rat ventral prostate 5α-reductase suspension, 3H-testosterone 2.2×10^-9 M, 50 μM NADPH, pH 6.5, 37° C., 30 minutes. From the text: [2] Inhibitory activity on testosterone 5α-reductase in rats
1,2,6,7-^3 H-Testosterone (85-105 Ci/mmol) is a mixture of 1,2,6,7-^3 H-testosterone and testosterone which includes 85-105 Ci of 1,2,6,7-^3 H-testosterone per mmol of testosterone and is purchased from New England Nuclear, Boston, Mass., U.S.A.
Aquazol-2 (Aquazol-2 Universal LSC Cocktail): trademark, purchased from New England Nuclear, Boston, Mass., U.S.A. ii) Preparation of prostatic testosterone 5α-reductase
Mature Spraque-Dawley male rats (7-8 weeks old) were sacrificed by diethyl ether. The ventral prostates were dissected to be free of their capsules and their combined volume was measured by displacement in several milliliters of ice-cold medium A (0.32M sucrose, 0.1 mM dithiothreitol and 20 mM sodium phosphate, pH 6.5). Unless specified, all the following procedures were carried out at 0°-4° C. The prostates were drained, minced, and then homogenized in 3-4 tissue volumes of medium A with Pyrex-glass homogenizer. The homogenate was fractioned by differential centrifugations at […]. The resulting pellets were resuspended in medium A. The suspension (20-30 mg protein/ml) was stored at -80° C. […]
iii) Testosterone 5α-reductase assay
The reaction solution contains 1 mM dithiothreitol, 40 mM sodium phosphate pH 6.5, 50 μM NADPH, 1,2,6,7-^3 H-testosterone/testosterone (2.2×10^-9 M) and the suspension prepared above (0.8 mg of protein) in a total volume of 565 μl. Test Compound was added in 10 μl of 10% ethanol whereas control tubes received the same volume of 10% ethanol. The reaction was started with the addition of the enzyme suspension. After incubation at 37° C. for 30 minutes, the reaction was extracted with 1 ml of ethyl acetate. Fifty μl of ethyl acetate phase was chromatographed on a Merck silica plastic sheet Kieselgel 60 F254, using ethyl acetate: cyclohexane (1:1) as the developing solvent system. The plastic sheet was air dried and cut the testosterone and the 5α-dihydrotestosterone areas. The radioactivity was counted in 5 ml of Aquazol-2 in Packard scintillation counter (PACKARD TRI - CARB 4530), and an inhibitory ratio was calculated.
As for `CCC(Oc1ccc(C(=O)c2cc(CCCC(=O)O)n3ccccc23)cc1)c1ccc(CC(C)C)cc1` (centres unmarked) [(4), 4-[1-[4-[1-(4-Isobutylphenyl)propyloxy]benzoyl]indolizin-3-yl]butyric acid], the IC50 (commonly the midpoint of a concentration-inhibition curve) turned out to be 0.55 nM.

In turn, `CC(C)Cc1ccc(C(Oc2cccc(C(=O)c3cc(CCCC(=O)O)c4ccccn34)c2)c2ccc(CC(C)C)cc2)cc1` [(3), 4-[3-[3-[Bis(4-isobutylphenyl)methoxy]benzoyl]indolizin-1-yl]butyric acid] gave an IC50 of 6.7 nM.

Regarding `CC(C)Cc1ccc(C(Nc2ccc(C(=O)c3cc(CCCC(=O)O)n4ccccc34)cc2)c2ccc(CC(C)C)cc2)cc1` [(2), 4-[1-[4-[Bis(4-isobutylphenyl)methylamino]benzoyl]indolizin-3-yl]butyric a cid], the IC50 is 0.44 nM.

The compound `CC(C)Cc1ccc(C(Nc2cccc(C(=O)c3cc(CCCC(=O)O)c4ccccn34)c2)c2ccc(CC(C)C)cc2)cc1` [Compound (1), 4-[3-[3-[Bis(4-isobutylphenyl)methylamino]benzoyl]indolizin-1-yl]butyric a cid] displayed an IC50 of 2.3 nM.

Take `CCCCC(Oc1ccc(C(=O)c2cc(CCCC(=O)O)n3ccccc23)cc1)c1ccc(CC(C)C)cc1` (centres unmarked) [(5), 4-[1-[4-[1-(4-Isobutylphenyl)pentyloxy]benzoyl]indolizin-3-yl]butyricacid]: the half-inhibitory concentration (IC50) is 1.8 nM.
